Laboratory results published in ChEMBL document CHEMBL3864125, “Design, synthesis and evaluation of 4-dimethylamine flavonoid derivatives as potential multifunctional anti-Alzheimer agents” (Eur J Med Chem, 2016).
Activity calls are given as the source filed them. No cut-off for these calls is given here.

How the values were obtained:
PC-12 [1] = assay: Antioxidant activity in rat PC12 cells assessed as decrease of H2O2-induced ROS production at 2.5 uM preincubated for 2 hrs followed by H2O2 addition for 24 hrs by DCFH-DA /DAPI-based fluorescence assay; format: functional, cell-based
[2] = molecular target: T1, Amyloid-beta precursor protein (Homo sapiens, UniProt P05067)
T1 sequence (P05067 whole entry): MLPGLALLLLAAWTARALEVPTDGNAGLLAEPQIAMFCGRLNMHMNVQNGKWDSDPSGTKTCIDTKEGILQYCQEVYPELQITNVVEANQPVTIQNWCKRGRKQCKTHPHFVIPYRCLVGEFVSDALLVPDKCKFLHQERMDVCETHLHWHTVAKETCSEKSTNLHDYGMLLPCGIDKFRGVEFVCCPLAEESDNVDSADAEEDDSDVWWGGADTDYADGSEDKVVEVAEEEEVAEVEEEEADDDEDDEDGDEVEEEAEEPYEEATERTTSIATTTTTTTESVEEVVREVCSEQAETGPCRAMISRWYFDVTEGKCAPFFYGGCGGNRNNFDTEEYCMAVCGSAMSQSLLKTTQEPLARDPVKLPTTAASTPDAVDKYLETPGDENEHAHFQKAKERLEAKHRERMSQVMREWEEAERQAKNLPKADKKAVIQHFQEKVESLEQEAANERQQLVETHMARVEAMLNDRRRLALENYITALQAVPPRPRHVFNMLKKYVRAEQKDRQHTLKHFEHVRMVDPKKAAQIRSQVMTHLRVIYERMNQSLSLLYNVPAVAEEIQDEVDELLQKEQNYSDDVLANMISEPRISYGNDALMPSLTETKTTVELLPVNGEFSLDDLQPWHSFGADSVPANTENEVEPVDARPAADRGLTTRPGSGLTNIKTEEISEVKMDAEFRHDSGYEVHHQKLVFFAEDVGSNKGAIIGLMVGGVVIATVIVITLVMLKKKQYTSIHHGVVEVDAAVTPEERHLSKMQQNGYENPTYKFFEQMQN
Description: Inhibition of self-mediated amyloid beta (1 to 42) (unknown origin) aggregation after 48 hrs by thioflavin T fluorescence assay

PC-12 [3] = assay: Protective effect against H2O2-induced cell death in rat PC12 cells at 5 uM preincubated for 2 hrs followed by H2O2 addition for 24 hrs by MTT assay; format: functional, cell-based
[4] = molecular target: T1, Amyloid-beta precursor protein; assay: Potency index, ratio of curcumin IC50 to compound IC50 for self-mediated amyloid beta (1 to 42) (unknown origin) aggregation
[5] = molecular target: Acetylcholinesterase (Electrophorus electricus) (UniProt O42275); assay: Mixed-type inhibition of electric eel AChE using ATC as substrate at 25 to 100 nM preincubated for 15 mins followed by substrate addition by Lineweavere-Burk plot analysis
Chain of Acetylcholinesterase (Electrophorus electricus) (O42275 24-633 limits assumed): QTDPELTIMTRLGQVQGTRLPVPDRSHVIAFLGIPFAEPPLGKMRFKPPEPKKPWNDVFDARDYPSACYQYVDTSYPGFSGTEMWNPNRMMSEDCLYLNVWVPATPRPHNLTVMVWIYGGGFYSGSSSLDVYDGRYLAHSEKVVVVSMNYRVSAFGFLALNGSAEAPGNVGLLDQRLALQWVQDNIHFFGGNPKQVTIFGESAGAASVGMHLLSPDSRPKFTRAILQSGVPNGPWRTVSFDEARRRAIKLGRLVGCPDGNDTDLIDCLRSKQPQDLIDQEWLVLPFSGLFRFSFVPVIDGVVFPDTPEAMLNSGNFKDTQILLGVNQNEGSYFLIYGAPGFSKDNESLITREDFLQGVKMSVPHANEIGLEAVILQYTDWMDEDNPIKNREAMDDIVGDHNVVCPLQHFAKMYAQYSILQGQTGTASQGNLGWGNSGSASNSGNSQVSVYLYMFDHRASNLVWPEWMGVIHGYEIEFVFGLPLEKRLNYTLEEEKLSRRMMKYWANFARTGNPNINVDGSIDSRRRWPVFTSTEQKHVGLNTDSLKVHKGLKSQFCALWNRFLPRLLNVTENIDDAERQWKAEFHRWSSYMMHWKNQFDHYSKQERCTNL

Acetylcholinesterase = Acetylcholinesterase (Electrophorus electricus, UniProt O42275)
Chain of Acetylcholinesterase (O42275 whole entry): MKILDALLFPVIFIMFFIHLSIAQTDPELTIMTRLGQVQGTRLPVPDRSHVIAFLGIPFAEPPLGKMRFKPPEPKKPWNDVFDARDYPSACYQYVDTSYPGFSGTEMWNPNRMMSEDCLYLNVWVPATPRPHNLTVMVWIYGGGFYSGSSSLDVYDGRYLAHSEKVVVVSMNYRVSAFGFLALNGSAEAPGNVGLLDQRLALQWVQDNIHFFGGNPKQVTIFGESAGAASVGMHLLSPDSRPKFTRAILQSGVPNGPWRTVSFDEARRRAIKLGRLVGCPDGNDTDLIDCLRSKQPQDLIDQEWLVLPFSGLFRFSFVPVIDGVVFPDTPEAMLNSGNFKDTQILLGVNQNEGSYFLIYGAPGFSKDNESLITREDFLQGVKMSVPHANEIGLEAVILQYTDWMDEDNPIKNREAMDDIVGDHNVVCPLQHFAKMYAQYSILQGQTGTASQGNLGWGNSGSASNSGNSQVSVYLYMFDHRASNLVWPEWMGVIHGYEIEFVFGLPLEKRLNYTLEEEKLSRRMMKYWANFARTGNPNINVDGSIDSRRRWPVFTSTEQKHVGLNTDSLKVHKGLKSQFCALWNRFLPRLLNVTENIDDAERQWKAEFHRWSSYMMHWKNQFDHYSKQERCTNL
Description: Inhibition of electric eel AChE using ATC as substrate preincubated for 15 mins followed by substrate addition by UV-spectrophotometric analysis

PC-12 [6] = assay: Protective effect against H2O2-induced cell death in rat PC12 cells at 1 to 5 uM preincubated for 2 hrs followed by H2O2 addition for 24 hrs by MTT assay; format: functional, cell-based
Rattus norvegicus = species: Rattus norvegicus; assay: Cytotoxicity against rat PC12 cells assessed as reduction in cell viability at 1 to 5 uM after 2 hrs by MTT assay; format: toxicity; conditions: pc-12, 2 h
Cholinesterase = Cholinesterase (Equus caballus, UniProt P81908)
Chain of Cholinesterase (P81908 whole entry): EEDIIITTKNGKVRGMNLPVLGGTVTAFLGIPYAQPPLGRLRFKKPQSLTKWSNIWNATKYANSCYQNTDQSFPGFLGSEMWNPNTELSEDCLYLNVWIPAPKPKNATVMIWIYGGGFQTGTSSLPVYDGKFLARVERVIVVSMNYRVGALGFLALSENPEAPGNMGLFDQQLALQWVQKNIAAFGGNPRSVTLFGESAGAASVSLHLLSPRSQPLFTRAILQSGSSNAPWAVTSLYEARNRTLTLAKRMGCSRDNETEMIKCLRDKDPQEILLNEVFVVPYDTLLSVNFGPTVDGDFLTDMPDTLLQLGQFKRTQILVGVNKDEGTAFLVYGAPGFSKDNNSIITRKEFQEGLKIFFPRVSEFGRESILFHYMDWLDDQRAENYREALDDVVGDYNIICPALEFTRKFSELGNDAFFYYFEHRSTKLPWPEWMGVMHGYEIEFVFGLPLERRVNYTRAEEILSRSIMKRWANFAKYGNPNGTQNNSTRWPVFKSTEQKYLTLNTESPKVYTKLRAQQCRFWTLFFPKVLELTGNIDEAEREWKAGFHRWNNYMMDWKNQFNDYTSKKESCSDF
Description: Inhibition of horse serum BChE using BTC as substrate preincubated for 15 mins followed by substrate addition by UV-spectrophotometric analysis

[7] = molecular target: Cholinesterase (Equus caballus) (UniProt P81908); assay: Mixed-type inhibition of horse serum BChE using BTC as substrate at 12.5 to 100 nM preincubated for 15 mins followed by substrate addition by Lineweavere-Burk plot analysis
Chain of Cholinesterase (Equus caballus) (P81908 whole entry): as above

[8] = molecular target: Acetylcholinesterase (Electrophorus electricus) (UniProt O42275); assay: Mixed-type inhibition of electric eel AChE using ATC as substrate at 1.25 to 5 uM preincubated for 15 mins followed by substrate addition by Lineweavere-Burk plot analysis
[9] = molecular target: Cholinesterase (Equus caballus) (UniProt P81908); conditions: 125 to 500 nM

Row | SMILES | IC50 (Acetylcholinesterase) [µM] | IC50 (Cholinesterase) [µM] | also measured
1 | CN(C)c1ccc(-c2cc(=O)c3ccc(OCC(=O)NCCCCCCNc4c5c(nc6ccccc46)CCCC5)cc3o2)cc1 | 0.0596 | 0.0462 | Activity (PC-12 [1]): Active; IC50 [2]: 9.47 µM; Activity (PC-12 [3]): Active; Ratio IC50 [4]: 2; inhibition [5]: Active; Activity (PC-12 [6]): Active; Activity (Rattus norvegicus): Non-Toxic; inhibition [7]: Active
2 | CN(C)c1ccc(-c2cc(=O)c3ccc(OCC(=O)NCCCCCCCCNc4c5c(nc6ccccc46)CCCC5)cc3o2)cc1 | 0.0946 | 0.0247 | –
3 | CN(C)CCCNC(=O)COc1ccc2c(=O)cc(-c3ccc(N(C)C)cc3)oc2c1 | 11.9 | 13.6 | –
4 | CN(C)c1ccc(-c2cc(=O)c3ccc(OCC(=O)NCCCNc4c5c(nc6ccccc46)CCCC5)cc3o2)cc1 | 0.769 | 0.266 | –
5 | CN(C)c1ccc(-c2cc(=O)c3ccc(OCC(=O)NCCCCCCCCN4CCCC4)cc3o2)cc1 | 2.3 | 0.238 | inhibition [8]: Active; inhibition [9]: Active
6 | CN(C)c1ccc(-c2cc(=O)c3ccc(OCC(=O)NCCCCN4CCCC4)cc3o2)cc1 | 4.83 | 11.6 | –
7 | CN(C)c1ccc(-c2cc(=O)c3ccc(OCC(=O)NCCN4CCCC4)cc3o2)cc1 | 3.13 | 27.2 | –
8 | CN(C)c1ccc(-c2cc(=O)c3ccc(OCC(=O)NCCCN4CCCC4)cc3o2)cc1 | 7.62 | 21.6 | –
9 | O=c1c(O)c(-c2ccc(O)c(O)c2)oc2cc(O)cc(O)c12 | – | – | Activity (PC-12 [1]): Active; Activity (PC-12 [3]): Active
10 | CN(C)c1ccc(-c2cc(=O)c3ccc(OCC(=O)NCCNc4c5c(nc6ccccc46)CCCC5)cc3o2)cc1 | 0.418 | 0.814 | –
11 | CN(C)c1ccc(-c2cc(=O)c3ccc(OCC(=O)NCCCCNc4c5c(nc6ccccc46)CCCC5)cc3o2)cc1 | 1.46 | 0.335 | –
12 | CN(C)c1ccc(-c2cc(=O)c3ccc(OCC(=O)NCCCCCCN4CCCC4)cc3o2)cc1 | 3.2 | 1.35 | –
13 | CN(C)CCNC(=O)COc1ccc2c(=O)cc(-c3ccc(N(C)C)cc3)oc2c1 | 5.24 | 10.7 | –
